In ChEMBL document CHEMBL3046294, “Fungicidal properties of the essential oil of Hesperozygis marifolia on Aspergillus flavus link” (2011):
Calls of active or inactive are those of the source. The calls are words filed in the database; no cut-off is given here.

Key:
Aspergillus flavus [1] = experiment: Antifungal activity against Aspergillus flavus assessed as inhibition of mycelial growth measured after 72 hr at 28 +/- 1 degC; format: functional, organism-based
Aspergillus flavus [2] = experiment: Antifungal activity against Aspergillus flavus assessed as inhibition of mycelial growth measured after 72 hr at 0.8 mg/mL at 28 +/- 1 degC; format: functional, organism-based
[3] = test system: Frankliniella occidentalis; experiment: Insecticidal activity against Frankliniella occidentalis (western flower thrips) assessed as mortality at 1 ul/45mL; format: functional

| SMILES | inhibition (Aspergillus flavus [1]) | inhibition (Aspergillus flavus [2]) | mortality [3] [%] |
| --- | --- | --- | --- |
| CC(C)[C@H]1CC[C@@H](C)CC1=O (relative stereo) | inactive | – | – |
| CC(C)[C@H]1CC[C@H](C)CC1=O (relative stereo) | inactive | – | – |
| CC(C)=C1CC[C@@H](C)CC1=O [PULEGONE] | – | Active | 100 |
